Experimental data: ChEMBL document CHEMBL3885881, “DrugMatrix”

Organism: Rattus norvegicus
Assay: DrugMatrix - Regimen: Daily Repeat
Format: toxicity, organism-based, Sprague-Dawley
Design: regimen Daily Repeat, gender Male, age 6-8 weeks
Conditions: in vivo, po, route oral GAVAGE, vehicle .5 % CMC; for ABSOLUTE BASOPHIL / ABSOLUTE EOSINOPHIL / ABSOLUTE LYMPHOCYTE / ABSOLUTE MONOCYTE / ABSOLUTE SEGMENTED NEUTROPHIL / BASOPHIL / EOSINOPHIL / ERYTHROCYTE COUNT / HEMATOCRIT / HEMOGLOBIN / LEUKOCYTE COUNT / LYMPHOCYTE / MEAN CORPUSCULAR HEMOGLOBIN / MEAN CORPUSCULAR HEMOGLOBIN CONCENTRATION / MONOCYTE / NEUTROPHIL / NUCLEATED RED BLOOD CELLS / PLATELET COUNT: tissue Blood; for ALANINE AMINOTRANSFERASE / ALBUMIN / ALKALINE PHOSPHATASE / ASPARTATE AMINOTRANSFERASE / BLOOD UREA NITROGEN / CARBON DIOXIDE / CHLORIDE / CHOLESTEROL / CREATINE PHOSPHOKINASE / CREATININE / GLUCOSE / LACTATE DEHYDROGENASE / LIPASE / PHOSPHORUS / POTASSIUM / SODIUM / TOTAL BILIRUBIN / TOTAL PROTEIN / URIC ACID: tissue Plasma
[1] = 0 mg/kg, 72 h, dose level Control, time 3 day
[2] = 0 mg/kg, 120 h, dose level Control, time 5 day
[3] = 3 mg/kg, 72 h, dose level Low, time 3 day

COc1cc2nc(N3CCN(C(=O)c4ccco4)CC3)nc(N)c2cc1OC [PRAZOSIN]
ABSOLUTE BASOPHIL [1]: 0 CELLS/uL
ABSOLUTE EOSINOPHIL [1]: 171.33 CELLS/uL
ABSOLUTE LYMPHOCYTE [1]: 13776.5 CELLS/uL
ABSOLUTE MONOCYTE [1]: 180.83 CELLS/uL
ABSOLUTE SEGMENTED NEUTROPHIL [1]: 1121.33 CELLS/uL
BASOPHIL [1]: 0%
EOSINOPHIL [1]: 1%
ERYTHROCYTE COUNT [1]: 5.56 x10E6/uL
HEMATOCRIT [1]: 34.75%
HEMOGLOBIN [1]: 13.68 G/DL
LEUKOCYTE COUNT [1]: 15.25 x10E3/uL
LYMPHOCYTE [1]: 90.17%
MEAN CORPUSCULAR HEMOGLOBIN [1]: 24.6 pg
MEAN CORPUSCULAR HEMOGLOBIN CONCENTRATION [1]: 39.4 G/DL
MONOCYTE [1]: 1.17%
NEUTROPHIL [1]: 7.67%
NUCLEATED RED BLOOD CELLS [1]: 0 /100WBC
PLATELET COUNT [1]: 1342 x10E3/uL
ALANINE AMINOTRANSFERASE [1]: 49.67 u/L
ALBUMIN [1]: 4.15 G/DL
ALKALINE PHOSPHATASE [1]: 346.83 u/L
ASPARTATE AMINOTRANSFERASE [1]: 108.17 u/L
BLOOD UREA NITROGEN [1]: 17.33 mg/dL
CARBON DIOXIDE [1]: 25 mmol/L
CHLORIDE [1]: 100.83 MEQ/L
CHOLESTEROL [1]: 66.83 mg/dL
CREATINE PHOSPHOKINASE [1]: 788 u/L
CREATININE [1]: 0.18 mg/dL
GLUCOSE [1]: 151.67 mg/dL
LACTATE DEHYDROGENASE [1]: 982.5 u/L
LIPASE [1]: 10.33 u/L
PHOSPHORUS [1]: 11.23 mg/dL
POTASSIUM [1]: 6.37 MEQ/L
SODIUM [1]: 141.02 MEQ/L
TOTAL BILIRUBIN [1]: 0.18 mg/dL
TOTAL PROTEIN [1]: 5.9 G/DL
URIC ACID [1]: 1.8 mg/dL
ABSOLUTE BASOPHIL [2]: 0 CELLS/uL
ABSOLUTE EOSINOPHIL [2]: 69 CELLS/uL
ABSOLUTE LYMPHOCYTE [2]: 13632.83 CELLS/uL
ABSOLUTE MONOCYTE [2]: 139.83 CELLS/uL
ABSOLUTE SEGMENTED NEUTROPHIL [2]: 1225 CELLS/uL
BASOPHIL [2]: 0%
EOSINOPHIL [2]: 0.33%
ERYTHROCYTE COUNT [2]: 5.52 x10E6/uL
HEMATOCRIT [2]: 33.98%
HEMOGLOBIN [2]: 13.22 G/DL
LEUKOCYTE COUNT [2]: 15.07 x10E3/uL
LYMPHOCYTE [2]: 90.83%
MEAN CORPUSCULAR HEMOGLOBIN [2]: 23.95 pg
MEAN CORPUSCULAR HEMOGLOBIN CONCENTRATION [2]: 38.9 G/DL
MONOCYTE [2]: 0.83%
NEUTROPHIL [2]: 8%
NUCLEATED RED BLOOD CELLS [2]: 0 /100WBC
PLATELET COUNT [2]: 1196 x10E3/uL
ALANINE AMINOTRANSFERASE [2]: 49.17 u/L
ALBUMIN [2]: 4.2 G/DL
ALKALINE PHOSPHATASE [2]: 352.33 u/L
ASPARTATE AMINOTRANSFERASE [2]: 89.67 u/L
BLOOD UREA NITROGEN [2]: 18 mg/dL
CARBON DIOXIDE [2]: 27.67 mmol/L
CHLORIDE [2]: 101 MEQ/L
CHOLESTEROL [2]: 72.83 mg/dL
CREATINE PHOSPHOKINASE [2]: 417.5 u/L
CREATININE [2]: 0.18 mg/dL
GLUCOSE [2]: 150.5 mg/dL
LACTATE DEHYDROGENASE [2]: 517.33 u/L
LIPASE [2]: 9 u/L
PHOSPHORUS [2]: 11.87 mg/dL
POTASSIUM [2]: 6.57 MEQ/L
SODIUM [2]: 143.62 MEQ/L
TOTAL BILIRUBIN [2]: 0.2 mg/dL
TOTAL PROTEIN [2]: 6.08 G/DL
URIC ACID [2]: 1.45 mg/dL
ABSOLUTE BASOPHIL [3]: 0 CELLS/uL
ABSOLUTE EOSINOPHIL [3]: 118.67 CELLS/uL
ABSOLUTE LYMPHOCYTE [3]: 13015.33 CELLS/uL
ABSOLUTE MONOCYTE [3]: 208 CELLS/uL
ABSOLUTE SEGMENTED NEUTROPHIL [3]: 1224.67 CELLS/uL
BASOPHIL [3]: 0%
EOSINOPHIL [3]: 0.67%
ERYTHROCYTE COUNT [3]: 5.43 x10E6/uL
HEMATOCRIT [3]: 33.53%
HEMOGLOBIN [3]: 13.07 G/DL
LEUKOCYTE COUNT [3]: 14.57 x10E3/uL
LYMPHOCYTE [3]: 89.67%
MEAN CORPUSCULAR HEMOGLOBIN [3]: 24.1 pg
MEAN CORPUSCULAR HEMOGLOBIN CONCENTRATION [3]: 38.97 G/DL
MONOCYTE [3]: 1.33%
NEUTROPHIL [3]: 8.33%
NUCLEATED RED BLOOD CELLS [3]: 0 /100WBC
PLATELET COUNT [3]: 1384.67 x10E3/uL
ALANINE AMINOTRANSFERASE [3]: 59.67 u/L
ALBUMIN [3]: 3.97 G/DL
ALKALINE PHOSPHATASE [3]: 505 u/L
ASPARTATE AMINOTRANSFERASE [3]: 74.67 u/L
BLOOD UREA NITROGEN [3]: 13.33 mg/dL
CARBON DIOXIDE [3]: 24.33 mmol/L
CHLORIDE [3]: 102 MEQ/L
CHOLESTEROL [3]: 70 mg/dL
CREATINE PHOSPHOKINASE [3]: 271 u/L
CREATININE [3]: 0.22 mg/dL
GLUCOSE [3]: 128.67 mg/dL
LACTATE DEHYDROGENASE [3]: 254.33 u/L
LIPASE [3]: 10.67 u/L
PHOSPHORUS [3]: 12.33 mg/dL
POTASSIUM [3]: 6.67 MEQ/L
SODIUM [3]: 142.25 MEQ/L
TOTAL BILIRUBIN [3]: 0.2 mg/dL
TOTAL PROTEIN [3]: 5.63 G/DL
URIC ACID [3]: 1.43 mg/dL
